Results as given in patent US5219863A, “Angiotensin II antagonizing compounds containing a 1,5-naphthyridine or a quinoline moiety” (Imperial Chemical Industries PLC, priority 1990, dated 1993).
Structures can show the parent of a compound that is named as a salt.

What was measured:
[1] = biological target: T1, angiotensin II (AII) receptors, guinea pig adrenal gland membrane (Cavia porcellus, UniProt Q9WV26); test: Test A: displacement of radiolabelled AII binding to guinea pig adrenal cell surface membranes; conditions: in vitro, read-out: IC50 (concentration for 50% displacement of radiolabelled AII binding)
T1 construct: from tissue; host or cells: guinea pig adrenal gland, cell surface membrane fraction
T1 sequence (Q9WV26 1-359): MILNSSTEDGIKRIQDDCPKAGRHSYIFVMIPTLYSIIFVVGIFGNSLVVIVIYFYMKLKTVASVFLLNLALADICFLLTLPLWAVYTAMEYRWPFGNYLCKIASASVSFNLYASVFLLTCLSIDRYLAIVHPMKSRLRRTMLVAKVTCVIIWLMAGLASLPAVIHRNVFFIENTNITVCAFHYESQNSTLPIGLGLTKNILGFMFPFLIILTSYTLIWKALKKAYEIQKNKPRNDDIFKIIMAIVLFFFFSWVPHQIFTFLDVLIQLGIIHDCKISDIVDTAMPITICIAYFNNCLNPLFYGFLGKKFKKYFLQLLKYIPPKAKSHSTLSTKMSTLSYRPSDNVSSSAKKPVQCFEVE
Method: (§1) The antagonism of one or more of the physiological actions of AII and, in particular, the antagonism of the interaction of AII with the receptors which mediate its effects on a target tissue, may be assessed using one or more of the following, routine laboratory procedures.
Test A: This in vitro procedure involves the incubation of the test compound initially at a concentration of 100 micromolar (or less) in a buffered mixture containing fixed concentrations of radiolabelled AII and a cell surface membrane fraction prepared from a suitable angiotensin target tissue. In this test, the source of cell surface membranes is the guinea pig adrenal gland which is well known to response to AII. Interaction of the radiolabelled AII with its receptors (assessed as radiolabel bound to the particulate membrane fraction following removal of unbound radiolabel by a rapid filtration procedure such as is standard in such studies) is antagonized by compounds which also bind to the membrane receptor sites and the degree of antagonism (observed in the test as displacement of membrane-bound radioactivity) is determined readily by comparing the receptor-bound radioactivity in the presence of the test compound at the specified test concentration with a control value determined in the absence of the test compound. […]

[2] = test system: pressor responses induced by AII; test: Test C: antagonism of AII-induced pressor responses in terminally-anaesthetised or conscious rats; assay type: in vivo; conditions: iv, rat, i.v. administration, AII-induced pressor response
From the text: as §1
Test C: This in vivo test involves using terminally-anaesthetised or conscious rats in which an arterial catheter has been implanted under anaesthesia for the measurement of changes in blood pressure. The AII antagonistic effects of the test compound following oral or parenteral administration, are assessed against pressor responses induced by AII. To ensure that the effect is specific the effect of the test compound on vasopressin-induced pressor responses may also be determined in the same preparation.

IC50 [1]: 18 nM
Compound: CCNC(=O)OCCOc1ccc2nc(CC)cc(OCc3ccc(-c4ccccc4-c4nn[nH]n4)cc3)c2n1 [Example 2, 2-ethyl-6-(2-ethylaminocarbonyloxy)ethoxy)-4-[(2'-(1H-tetrazol-5-yl)biphenyl-4-yl)methoxy]-1,5-naphthyridine hydrochloride]
ED50 [2]: 0.08 mg/kg
